Measured values from ChEMBL document CHEMBL5532742, “Design and Synthesis of the Linezolid Bioisosteres to Resolve the Serotonergic Toxicity Associated with Linezolid” (ACS Med Chem Lett, 2024).
Converted amounts (≈) assume the structure as drawn. “And” between values parts separate entries of the source, which are not always exact repeats. Equal entries are not always repeated.

How the values were obtained:
[1] = tested on: Mycobacterium tuberculosis; assay: Antimycobacterial activity against Mycobacterium tuberculosis H37Rv assessed as prevention of bacterial growth measured after 7 days by alamar blue assay; type: functional; conditions: 168 h, time 7 day
[2] = tested on: Mycobacterium tuberculosis; assay: Antimycobacterial activity against Mycobacterium tuberculosis clinical isolate without mutation incubated for 1 week by resazurin dye based fluorescence analysis; type: functional; conditions: time 1 weeks
[3] = target: T1, Amine oxidase [flavin-containing] A (Homo sapiens, UniProt P21397); assay: Inhibition of human recombinant MAO-A using kynuramine as substrate; type: toxicity
T1 sequence (P21397 whole entry): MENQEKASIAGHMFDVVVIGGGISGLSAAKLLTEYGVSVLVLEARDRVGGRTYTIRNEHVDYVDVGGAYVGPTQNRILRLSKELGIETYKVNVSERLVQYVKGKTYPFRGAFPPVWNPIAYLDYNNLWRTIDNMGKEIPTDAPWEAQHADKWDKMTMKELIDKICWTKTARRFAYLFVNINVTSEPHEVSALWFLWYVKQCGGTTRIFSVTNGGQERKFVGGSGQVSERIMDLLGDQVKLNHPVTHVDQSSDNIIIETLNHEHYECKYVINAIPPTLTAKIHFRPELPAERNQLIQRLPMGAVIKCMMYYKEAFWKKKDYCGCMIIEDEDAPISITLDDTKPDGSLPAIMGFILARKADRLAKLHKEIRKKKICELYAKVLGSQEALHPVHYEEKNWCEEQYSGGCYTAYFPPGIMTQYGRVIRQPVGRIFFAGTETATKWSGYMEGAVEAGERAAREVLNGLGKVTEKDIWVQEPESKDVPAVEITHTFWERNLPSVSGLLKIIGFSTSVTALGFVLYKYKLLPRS

[4] = target: T2, Amine oxidase [flavin-containing] B (Homo sapiens, UniProt P27338); assay: Inhibition of human recombinant MAO-B using benzylamine as substrate; type: toxicity
T2 sequence (P27338 whole entry): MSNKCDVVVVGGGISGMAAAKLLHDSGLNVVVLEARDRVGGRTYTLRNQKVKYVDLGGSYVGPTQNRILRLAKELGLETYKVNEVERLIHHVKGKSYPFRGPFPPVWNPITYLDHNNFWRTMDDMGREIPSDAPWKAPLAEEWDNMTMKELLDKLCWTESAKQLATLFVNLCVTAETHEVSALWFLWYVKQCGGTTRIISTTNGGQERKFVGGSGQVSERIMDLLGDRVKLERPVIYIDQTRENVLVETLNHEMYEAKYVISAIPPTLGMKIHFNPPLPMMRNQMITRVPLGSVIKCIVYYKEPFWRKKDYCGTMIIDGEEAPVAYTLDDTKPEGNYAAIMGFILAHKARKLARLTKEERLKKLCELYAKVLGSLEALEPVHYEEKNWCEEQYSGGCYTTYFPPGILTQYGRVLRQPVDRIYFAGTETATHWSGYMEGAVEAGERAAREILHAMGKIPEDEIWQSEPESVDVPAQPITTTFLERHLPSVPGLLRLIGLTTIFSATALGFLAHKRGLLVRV

[5] = target: T3, MAO-B (Homo sapiens, UniProt P27338); assay: Potency index, ratio of test compound IC50 to linezolid IC50 for inhibition of human recombinant MAO-B using benzylamine as substrate; type: toxicity; conditions: probe benzylamine, read-out: Ratio IC50
T3 sequence (P27338 whole entry): T2 sequence (P27338 whole entry)

[6] = target: T1, Amine oxidase [flavin-containing] A; assay: Inhibition of human recombinant MAO-A using tyramine as substrate by ELISA; type: toxicity
[7] = target: T2, Amine oxidase [flavin-containing] B; assay: Inhibition of human recombinant MAO-B using tyramine as substrate by ELISA; type: toxicity
[8] = tested on: Staphylococcus aureus; assay: Antibacterial activity against Staphylococcus aureus ATCC 25923; type: functional

Structure (SMILES)	MIC [1]	MIC50 [2] [µM]	IC50 [3] [µM]	IC50 [4] [µM]	selectivity ratio [5]	IC50 [6] [µM]	IC50 [7] [µM]	MIC [8] [µg/mL]
O=C1O[C@@H](CNS(=O)(=O)c2cccs2)CN1c1ccc(N2CCOCC2)c(F)c1	1.76 µM (≈ 0.777 µg/mL)	4.01 (≈ 1.77 µg/mL)	> 40	27.3				
O=C(NC[C@H]1CN(c2ccc(N3CCOCC3)c(F)c2)C(=O)O1)C1CC1	2.08 µM (≈ 0.756 µg/mL)	1.11 (≈ 0.403 µg/mL)	> 40	30.3				
O=C(NC[C@H]1CN(c2ccc(N3CCOCC3)c(F)c2)C(=O)O1)c1cccs1	1.92 µM (≈ 0.778 µg/mL)	3.12 (≈ 1.27 µg/mL)	> 40	33.1				
CCS(=O)(=O)NC[C@H]1CN(c2ccc(N3CCOCC3)c(F)c2)C(=O)O1	2.01 µM (≈ 0.779 µg/mL)	0.74 (≈ 0.287 µg/mL)	> 40	> 40	64.6			
O=C1O[C@H](Cn2ccnn2)CN1c1ccc(N2CCOCC2)c(F)c1						31.9	15.4	1 (≈ 2.88 µM)
CS(=O)(=O)NC[C@H]1CN(c2ccc(N3CCOCC3)c(F)c2)C(=O)O1	2.14 µM (≈ 0.799 µg/mL)	1.11 (≈ 0.414 µg/mL)	> 40	2.95				
CCCCS(=O)(=O)NC[C@H]1CN(c2ccc(N3CCOCC3)c(F)c2)C(=O)O1	1.87 µM and > 25 µg/mL		> 40	25.4				
CC(C)(C)c1ccc(S(=O)(=O)NC[C@H]2CN(c3ccc(N4CCOCC4)c(F)c3)C(=O)O2)cc1	1.58 µM and > 25 µg/mL		19.3	13.2				
O=C1O[C@@H](CNS(=O)(=O)C2CC2)CN1c1ccc(N2CCOCC2)c(F)c1	1.95 µM and > 25 µg/mL		> 40	11.4				
NNC(=O)c1ccncc1 [ISONIAZID]		<0.2						
CC(=O)NC[C@H]1CN(c2ccc(N3CCOCC3)c(F)c2)C(=O)O1 [LINEZOLID]	2.31 µM (≈ 0.779 µg/mL)	0.34 (≈ 0.115 µg/mL)						
CO[C@H]1/C=C/O[C@@]2(C)Oc3c(C)c(O)c4c(O)c(c(/C=N/N5CCN(C)CC5)c(O)c4c3C2=O)NC(=O)/C(C)=C\C=C\[C@H](C)[C@H](O)[C@@H](C)[C@@H](O)[C@@H](C)[C@H](OC(C)=O)[C@@H]1C [RIFAMPIN]		<0.04						
